Test results from article PMC10916352, “Safety Evaluation of a Prototypical Diazirine-Based Covalent Crosslinker and Molecular Adhesive” (International Journal of Toxicology, 2023).
Several values for one entry are separate records, joined by “and”; a condition that tells them apart may be missing. Equal values may be shown once.

Tested on: Salmonella typhimurium TA100
Experiment: Bacterial reverse mutation test (Ames), strain TA100
Assay type: cell-based
Conditions: for Revertant Colonies (With S9), plates A, B, C / Revertant Colonies (Without S9), plates A, B, C: individual plates
Method: The reverse mutation test was performed to determine the potential of BondLynx and/or its metabolites to induce reverse mutations at the histidine locus of Salmonella typhimurium.[26],[27] The test employs strains of Salmonella typhimurium carrying mutations in the genes involved in histidine production, such that they are only able to grow in histidine supplemented culture media. Upon exposure to mutagenic materials, these mutations may be reversed, thereby restoring the ability to grow in histidine-free media. When grown in the presence of the test compound on media with a small amount of histidine, tester strains grow briefly to allow the opportunity for mutation, followed by proliferation of revertant colonies upon depletion of the provided histidine. Thus, the number of revertant colonies following incubation is indicative of the ability of the test compound to induce mutations.
Tests were performed on two strains of the bacteria (TA98 and TA100) in the absence and presence of an exogenous mammalian metabolic activation system (5% v/v S9). Positive controls and BondLynx were suspended in dimethyl sulfoxide (DMSO) for testing, and DMSO served as the vehicle control. Positive controls consisted of 2-nitrofluorene (10 μg/plate) for the TA98 strain without S9, methyl mesylate (650 μg/plate) for the TA100 strain without S9, and 2-aminoanthracene for both strains with S9 (1 μg/plate for TA98 and 5 μg/plate for TA100). Eight concentrations of BondLynx (1.7, 5.4, 17, 52, 164, 512, 1600 and 5000 μg/plate) were tested in triplicate. The vehicle control was tested in triplicate and the positive controls were tested singular.
Test solutions were prepared by pre-incubating .1 mL fresh bacterial culture (10^9 cells/mL), .1 mL of a BondLynx dilution or control solution, and .5 mL of S9 mix or .1 M phosphate buffer for 30 min before adding to 3 mL of molten (45 ± 2°C) top agar. After mixing in a vortex, agar solutions were poured onto selective agar plates. Upon solidification, the prepared plates were inverted and incubated at 37.0 ± 1.0°C for 48 ± 4 h. Following incubation, revertant colonies were counted with a Sorcerer Colony Counter. The condition of the bacterial background lawn was evaluated macroscopically and/or microscopically using a dissecting microscope when considered necessary.

[1] = TA100, without S9, 1.7 μg/plate
[2] = TA100, without S9, 5.4 μg/plate
[3] = TA100, without S9, 164 μg/plate
[4] = TA100, without S9, 512 μg/plate
[5] = TA100, without S9, 1600 μg/plate
[6] = TA100, without S9, 5000 μg/plate

In the case of `FC(F)(F)C1(c2ccc(C(c3ccc(C4(C(F)(F)F)N=N4)cc3)(C(F)(F)F)C(F)(F)F)cc2)N=N1` [BondLynx, 2,2-bis-[4-[3-(trifluoromethyl)-3H-diazirin-3-yl]phenyl]hexafluoropropane], the Mutagenicity conclusion (TA100, absence and presence of S9, 1.7 to 5000 μg/plate) is reported as “non-mutagenic”, the “Total number of revertants relative to concurrent vehicle control” value (TA100, vs DMSO vehicle control) is reported as “less than two times” and the “Revertant Colonies (With S9), Mean ± SD” value (TA100, with S9, 1.7 μg/plate) is reported as 95 ± 3. For the same molecule, the “Revertant Colonies (With S9), plates A, B, C” value (TA100, with S9, 1.7 μg/plate) was 93 and 94 and 98, the “Revertant Colonies (With S9), Mean ± SD” value (TA100, with S9, 5.4 μg/plate) was 92 ± 17 and the “Revertant Colonies (With S9), plates A, B, C” value (TA100, with S9, 5.4 μg/plate) was 98 and 73 and 105. For the same molecule, the “Revertant Colonies (With S9), Mean ± SD” value (TA100, with S9, 17 μg/plate) was 89 ± 15, the “Revertant Colonies (With S9), plates A, B, C” value (TA100, with S9, 17 μg/plate) was 72 and 98 (2×) and the “Revertant Colonies (With S9), Mean ± SD” value (TA100, with S9, 52 μg/plate) was 100 ± 16. The “Revertant Colonies (With S9), plates A, B, C” value (TA100, with S9, 52 μg/plate) was 118 and 93 and 88, the “Revertant Colonies (With S9), Mean ± SD” value (TA100, with S9, 164 μg/plate) was 96 ± 16 and the “Revertant Colonies (With S9), plates A, B, C” value (TA100, with S9, 164 μg/plate) was 83 and 113 and 91. The “Revertant Colonies (With S9), Mean ± SD” value (TA100, with S9, 512 μg/plate) was 99 ± 16, the “Revertant Colonies (With S9), plates A, B, C” value (TA100, with S9, 512 μg/plate) was 98 and 84 and 116 and the “Revertant Colonies (With S9), Mean ± SD” value (TA100, with S9, 1600 μg/plate) was 88 ± 8. For the same molecule, the “Revertant Colonies (With S9), plates A, B, C” value (TA100, with S9, 1600 μg/plate) was 84 and 82 and 97, the “Revertant Colonies (With S9), Mean ± SD” value (TA100, with S9, 5000 μg/plate) was 96 ± 10 and the “Revertant Colonies (With S9), plates A, B, C” value (TA100, with S9, 5000 μg/plate) was 107 and 94 and 88. The “Revertant Colonies (Without S9), Mean ± SD” value [1] was 88 ± 3, the “Revertant Colonies (Without S9), plates A, B, C” value [1] was 91 and 86 (2×) and the “Revertant Colonies (Without S9), Mean ± SD” value [2] was 112 ± 15. For the same molecule, the “Revertant Colonies (Without S9), plates A, B, C” value [2] was 127 and 110 and 98, the “Revertant Colonies (Without S9), Mean ± SD” value (TA100, without S9, 17 μg/plate) was 107 ± 7 and the “Revertant Colonies (Without S9), plates A, B, C” value (TA100, without S9, 17 μg/plate) was 114 and 101 and 105. The “Revertant Colonies (Without S9), Mean ± SD” value (TA100, without S9, 52 μg/plate) was 102 ± 22, the “Revertant Colonies (Without S9), plates A, B, C” value (TA100, without S9, 52 μg/plate) was 105 and 122 and 78 and the “Revertant Colonies (Without S9), Mean ± SD” value [3] was 100 ± 4. For the same molecule, the “Revertant Colonies (Without S9), plates A, B, C” value [3] was 95 and 103 and 102, the “Revertant Colonies (Without S9), Mean ± SD” value [4] was 91 ± 17 and the “Revertant Colonies (Without S9), plates A, B, C” value [4] was 84 and 110 and 79. For the same molecule, the “Revertant Colonies (Without S9), Mean ± SD” value [5] was 91 ± 12, the “Revertant Colonies (Without S9), plates A, B, C” value [5] was 82 and 86 and 105 and the “Revertant Colonies (Without S9), Mean ± SD” value [6] was 102 ± 13. For the same molecule, the “Revertant Colonies (Without S9), plates A, B, C” value [6] was 91 and 116 and 99, the “Cytotoxicity (condition of microcolony lawn)” value (absence of S9, higher concentrations) was “slight thinning of the microcolony lawn” and the “Cytotoxicity (condition of microcolony lawn)” value (presence of S9, any tested dose level) was “toxicity was not observed”.
